Experimental data: ChEMBL document CHEMBL1155773, “Effects of imipenem-cilastatin, ertapenem, piperacillin-tazobactam, and ceftriaxone treatments on persistence of intestinal colonization by extended-spectrum-beta-lactamase-producing Klebsiella pneumoniae strains in mice” (2007)
≈ marks a conversion by molar mass, not a printed value. Calls of active or inactive are those of the source. The calls are words filed in the database; no cut-off is given here.

Assays:
Klebsiella pneumoniae [1] = assay: Effect on extended-spectrum-beta-lactamase-producing Klebsiella pneumoniae P62 infected in sc dosed CF1 mouse with high-density bacterial colonization administered daily for 9 days assessed as promotion of persistent bacterial overgrowth by measuring stool bacterial count; type: functional, organism-based
Klebsiella pneumoniae [2] = assay: Effect on extended-spectrum-beta-lactamase-producing Klebsiella pneumoniae P10045 infected in sc dosed CF1 mouse with high-density bacterial colonization administered daily for 9 days assessed as promotion of persistent bacterial overgrowth by measuring stool bacterial count; type: functional, organism-based
Klebsiella pneumoniae [3] = assay: Antibacterial activity against extended-spectrum-beta-lactamase-producing Klebsiella pneumoniae P10045 by broth dilution method; type: functional
Klebsiella pneumoniae [4] = assay: Antibacterial activity against extended-spectrum-beta-lactamase-producing Klebsiella pneumoniae isolate; type: functional
Klebsiella pneumoniae [5] = assay: Antibacterial activity against extended-spectrum-beta-lactamase-producing Klebsiella pneumoniae P62 by broth dilution method; type: functional
Klebsiella pneumoniae [6] = assay: Antibacterial activity against extended-spectrum-beta-lactamase-producing Klebsiella pneumoniae P62 infected in sc dosed CF1 mouse with high-density bacterial colonization administered daily for 9 days assessed as suppression of stool bacterial count; type: functional, organism-based
Klebsiella pneumoniae [7] = assay: Antibacterial activity against extended-spectrum-beta-lactamase-producing Klebsiella pneumoniae P10045 infected in sc dosed CF1 mouse with high-density bacterial colonization administered daily for 9 days assessed as suppression of stool bacterial count; type: functional, organism-based

Activity (Klebsiella pneumoniae [1]) | Activity (Klebsiella pneumoniae [2]) | SMILES | MIC (Klebsiella pneumoniae [3]) | MIC (Klebsiella pneumoniae [4]) | MIC (Klebsiella pneumoniae [5]) | Activity (Klebsiella pneumoniae [6]) | Activity (Klebsiella pneumoniae [7])
Active | Active | CO/N=C(\C(=O)N[C@@H]1C(=O)N2C(C(=O)O)=C(CSc3nc(=O)c(O)nn3C)CS[C@H]12)c1csc(N)n1 [CEFTRIAXONE] | 78 mg/L (≈ 141 µM) | 4 mg/L (≈ 7.21 µM) | 4 mg/L (≈ 7.21 µM) |  | 
 |  | C[C@@H](O)[C@H]1C(=O)N2C(C(=O)O)=C(S[C@@H]3CN[C@H](C(=O)Nc4cccc(C(=O)O)c4)C3)[C@H](C)[C@H]12 [ERTAPENEM] | 0.25 mg/L (≈ 0.526 µM) | < 0.25 mg/L | < 0.25 mg/L | Active | Active
